Here are results for 1 molecule from ChEMBL document CHEMBL1151260, “Expanding the ChemGPS chemical space with natural products” (J Nat Prod, 2005).

Bounds are passed on as bounds.

This test deals with RAW264.7. In words: Inhibition of COX2 mRNA expression in mouse RAW264.7 cells. The test is classed as functional, cell-based.

Broadly, the IC50 is the concentration at which inhibition is half-maximal. Higher therefore signals a need for much substance. Regarding `O=c1c(O)c(-c2ccc(O)cc2)oc2cc(O)cc(O)c12` [KAEMPFEROL], the IC50 was < 15 µM.
